Our source for the inhibition values is ChEMBL document CHEMBL5696442, “Discovery of type II inhibitors of TGFβ-activated kinase 1 (TAK1) and mitogen-activated protein kinase kinase kinase kinase 2 (MAP4K2)” (J Med Chem, 2015).

Common to all, as to assay type: cell-based
Assay [1] deals with T1, Serine/threonine-protein kinase greatwall (Homo sapiens) (UniProt Q96GX5).
T1 sequence (whole entry): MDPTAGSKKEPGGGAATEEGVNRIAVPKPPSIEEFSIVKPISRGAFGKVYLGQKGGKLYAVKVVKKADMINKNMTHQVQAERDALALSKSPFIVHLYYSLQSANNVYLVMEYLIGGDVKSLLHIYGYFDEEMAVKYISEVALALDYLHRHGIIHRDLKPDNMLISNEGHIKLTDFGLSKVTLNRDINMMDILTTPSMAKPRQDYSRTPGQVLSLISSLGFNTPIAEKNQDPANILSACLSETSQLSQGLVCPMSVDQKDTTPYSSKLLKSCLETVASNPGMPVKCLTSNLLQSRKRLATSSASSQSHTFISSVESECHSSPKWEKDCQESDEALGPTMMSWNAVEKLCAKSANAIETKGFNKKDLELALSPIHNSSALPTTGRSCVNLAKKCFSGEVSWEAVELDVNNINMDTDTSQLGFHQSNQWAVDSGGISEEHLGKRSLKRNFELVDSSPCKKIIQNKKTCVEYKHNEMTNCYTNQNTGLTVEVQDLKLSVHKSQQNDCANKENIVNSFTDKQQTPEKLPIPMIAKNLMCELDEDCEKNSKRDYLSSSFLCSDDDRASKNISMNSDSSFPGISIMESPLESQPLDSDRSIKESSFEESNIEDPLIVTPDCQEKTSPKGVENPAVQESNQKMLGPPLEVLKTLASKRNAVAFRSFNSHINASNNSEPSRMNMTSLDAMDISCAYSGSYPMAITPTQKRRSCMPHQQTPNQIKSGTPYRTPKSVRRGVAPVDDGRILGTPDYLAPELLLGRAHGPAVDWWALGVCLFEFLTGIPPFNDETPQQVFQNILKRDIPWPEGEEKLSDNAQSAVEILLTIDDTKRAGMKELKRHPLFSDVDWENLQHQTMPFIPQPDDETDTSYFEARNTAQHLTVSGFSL
The assay is described as follows: Inhibition of MASTL ATP Loop labeling site in human A-375 cells at 0.05 uM by KiNativ Profiling analysis relative to control.

Assay [2] deals with T2, Dual specificity mitogen-activated protein kinase kinase 3 (Homo sapiens) (UniProt P46734).
T2 sequence (whole entry): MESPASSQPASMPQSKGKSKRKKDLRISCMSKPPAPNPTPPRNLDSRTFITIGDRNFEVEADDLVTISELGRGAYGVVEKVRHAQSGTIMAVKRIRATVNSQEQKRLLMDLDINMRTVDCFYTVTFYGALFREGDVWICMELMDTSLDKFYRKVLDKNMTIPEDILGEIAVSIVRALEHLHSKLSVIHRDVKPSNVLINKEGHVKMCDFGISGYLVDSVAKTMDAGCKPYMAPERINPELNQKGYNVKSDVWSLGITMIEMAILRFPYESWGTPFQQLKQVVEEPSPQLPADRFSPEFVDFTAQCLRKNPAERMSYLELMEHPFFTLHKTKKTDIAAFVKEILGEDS
Briefly: Inhibition of MAP2K3 Lys2 labeling site in human A-375 cells at 0.05 uM by KiNativ Profiling analysis relative to control.

Assay [3] addresses T3, Serine/threonine-protein kinase Nek9 (Homo sapiens) (UniProt Q8TD19).
T3 sequence (whole entry): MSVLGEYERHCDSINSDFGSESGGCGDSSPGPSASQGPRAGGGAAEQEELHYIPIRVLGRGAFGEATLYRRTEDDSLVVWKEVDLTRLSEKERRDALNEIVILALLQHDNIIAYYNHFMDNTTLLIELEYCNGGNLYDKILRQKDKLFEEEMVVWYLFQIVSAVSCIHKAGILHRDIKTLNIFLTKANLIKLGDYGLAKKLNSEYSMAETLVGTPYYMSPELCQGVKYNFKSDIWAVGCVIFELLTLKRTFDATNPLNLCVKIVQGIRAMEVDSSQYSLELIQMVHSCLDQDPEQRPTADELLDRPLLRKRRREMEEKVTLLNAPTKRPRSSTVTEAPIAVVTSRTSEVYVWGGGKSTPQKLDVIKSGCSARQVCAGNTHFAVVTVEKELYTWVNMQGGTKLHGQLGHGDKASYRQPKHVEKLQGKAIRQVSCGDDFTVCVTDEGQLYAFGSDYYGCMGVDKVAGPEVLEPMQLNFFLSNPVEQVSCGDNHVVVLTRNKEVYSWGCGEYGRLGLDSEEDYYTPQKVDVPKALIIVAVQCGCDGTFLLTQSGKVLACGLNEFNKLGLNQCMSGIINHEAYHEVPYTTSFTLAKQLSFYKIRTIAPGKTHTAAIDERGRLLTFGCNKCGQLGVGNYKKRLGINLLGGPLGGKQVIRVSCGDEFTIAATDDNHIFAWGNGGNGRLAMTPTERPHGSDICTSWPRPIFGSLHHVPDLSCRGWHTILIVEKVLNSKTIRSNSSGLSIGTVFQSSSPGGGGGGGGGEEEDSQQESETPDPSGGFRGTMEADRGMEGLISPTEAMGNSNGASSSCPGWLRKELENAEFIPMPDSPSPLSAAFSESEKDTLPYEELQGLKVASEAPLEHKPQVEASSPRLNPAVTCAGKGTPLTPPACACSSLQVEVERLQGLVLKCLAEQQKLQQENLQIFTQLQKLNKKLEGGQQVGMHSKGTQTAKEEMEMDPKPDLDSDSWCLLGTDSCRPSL
Briefly: Inhibition of NEK9 Lys1 labeling site harbouring TEDDSLVVWKEVDLTR in human A-375 cells at 5 uM by KiNativ Profiling analysis relative to control.

For the molecule `CCN1CCN(Cc2ccc(NC(=O)c3ccc(C)c(/C=C/c4cnc5[nH]ccc5c4OC)c3)cc2C(F)(F)F)CC1`, the results for the inhibition in assay [1], in assay [2] and in assay [3] were -6.2%, 2.6% and 0.1%, respectively.
For `CCN1CCN(Cc2ccc(NC(=O)c3ccc(C)c(Oc4ccnc5[nH]ccc45)c3)cc2C(F)(F)F)CC1`, in that order: 2%, 12.6% and -1.2%.
